Two compounds from patent US4659716A, “Antihistaminic 8-(halo)-substituted 6,11-dihydro-11-(4-piperidylidene)-5H-benzo[5,6]cyclohepta[1,2-b]pyridin es” (Schering Corporation, priority 1986, dated 1987) can be followed below.

Where only a bound is given, the exact number is not on record here.

In general, ED50 refers to the dose at which the effect has come halfway, by size or by number of responders.

A short description of data set [1]: Toxicity (no method given). Conditions: in vivo.
For data set [2], the system named is histamine-induced lethality. As to the kind of experiment: Prevention of histamine-induced lethality in guinea pigs (A). The format is in vivo, guinea pigs (female albino). Conditions: Cavia porcellus; oral, 1 hour prior to i.v. histamine 1.1 mg/kg; read-out: Antihistaminic Activity, A. G. pig. p.o. ED50. As to the method:
A. Prevention of histamine-induced lethality in guinea pigs. […] Doses of the antagonists were administered orally to separate groups of fasted animals 1 hour prior to the challenge with histamine and protection from death recorded for 30 minutes after histamine. ED50 values were determined for each drug by […].

The test system of data set [3] is histamine-induced paw edema. As to the kind of experiment: Histamine-induced paw edema in mice (oral). In kind it is in vivo, mice (male CF1). As to the method:
For example, the ability of the compounds to reduce histamine-induced paw edema in mice may be measured by use of the following method.
Male CF1 mice, 25-30 g, are housed under conditions of controlled temperature and humidity with a 12 hour dark/light cycle. Food and water are allowed ad libitum. The mice are randomly assigned to the treatment groups. One hour after treatment with a compound of the invention or vehicle, the mice are lightly anesthetized with ether. The left hind paw of each mouse serves as a control and is injected with 25 μl of isotonic saline. The right hind paw serves as the experimental paw and is injected with 25 μl of isotonic saline containing 13 μg histamine dihydrochloride. Thirty minutes later the mice are killed by cervical dislocation and both hind paws of each mouse are removed by cutting at the tarsal joint. The weight of each paw is recorded and the difference in weight between the compound-treated and the placebo-treated groups is evaluated using Student's "t" test. The ED50 values (the dose causing 50% inhibition of histamine-induced edema) and 95% confidence limits are determind by the Linear Least Square Dose-Response method [Brownlee, K. A., "Statistical Theory And Methodology In Science and Engineering", 2nd Ed., J. Wiley and Sons, New York, 1965, pp. 346-349].

For another data set, the system named is CNS activity. As to the kind of experiment: CNS test procedures B, C and D taken together. The format is in vivo, mice. The note with it: oral. As for the experimental part: C. […] Mice were injected with 0.6% aqueous acetic acid at 10 mg/kg i.p. 15 minutes after oral administration of the test drug. The number of writhes for each animal was counted during a 10 minute period starting 3 minutes after acetic acid treatment. A writhe was defined as a sequence of arching of the back, pelvic rotation and hind limb extension.
One hour after oral administration of the test drug or vehicle, mice were administered a 13 mA, 60 cycle a.c. electroconvulsant shock (ECS) for 0.2 seconds via corneal electrodes.

Data set [4] can be described thus: Antagonism of physostigmine lethality (B). The format is in vivo, mice. The note with it: mouse, physostigmine-induced lethality; oral, unit inferred; read-out: ED50 in the physostigmine-induced lethality test.
Experimental: B. Antagonism of Physostigmine Lethality. […] Physostigmine salicylate (b 1.0 mg/kg s.c.) produces 100% lethality when administered to mice grouped 10 per plastic cage (11×26×13 cm). Test agents were administered orally 30 minutes prior to physostigmine. The number of survivors were counted 20 minutes after physostigmine administration.
In data set [5] the test system is behavior, neurologic function and autonomic function in mice. The note with it: po; score of 2 or greater in at least 3 of 6 animals.
Text: A semiquantitative scoring scale was used where signs normally present (e.g., spontaneous activity, alertness, pupil size) were assigned a "normal" score of 0 and scores of +1, +2 and +3 indicated slight, moderate and marked increases and scores of -1, -2 and -3 indicated slight, moderate and marked decreases from "normality". When a sign occurred that is not normally present (e.g., convulsions, tremors), its magnitude was graded on a 1-3 scale. Each treatment group consisted of 6 animals and evaluations were conducted 1 hour after dosing. Additional observations for lethality were made for up to 24 hours after dosing. Incidence is defined as the observation occurring in an animal with a score of 2 or greater according to the scoring method defined above.
^a Minimal effective dose, defined as the lowest dose that produced a

As to `Fc1ccc2c(c1)CCc1cccnc1C2=C1CCNCC1` [Compound B, 8-fluoro-6,11-dihydro-11-(4-piperidylidene)-5H-benzo[5,6]cyclohepta[1,2-b]pyridine], the “Toxicity” value in data set [1] is “very low toxicity”. For the same compound, the ED50 in data set [2] was 0.09 mg/kg; in data set [3] (Mus musculus, po, 1 h), < 3 mg/kg; in data set [4] it was > 320 mg/kg. Moreover, the “Activity in all of the CNS test procedures” value with CNS activity is “relatively inactive”.
As to `Clc1ccc2c(c1)CCc1cccnc1C2=C1CCNCC1` [Compound A, 8-chloro-6,11-dihydro-11-(4-piperidylidene)-5H-benzo[5,6]cyclohepta[1,2-b]pyridine], the “MED, Lethality” value in data set [5] is listed as 300 mg/kg. In addition, the “Increased Paw Weight, Mean” value in data set [3] (oral dose 0.03 mg/kg, 8 animals) is reported as 19.9 mg; in data set [3] (oral dose 0.1 mg/kg, 7 animals), 13.0 mg; in data set [3] (oral dose 0.3 mg/kg, 8 animals), 6.1 mg; in data set [3] (oral dose 1.0 mg/kg, 8 animals), 2.5 mg.
